Measured values from patent US6469058B1 (priority 1998, dated 2002).
Where “and” joins values, the source holds several entries; their conditions need not be identical. Identical values can stand only once. Like-named read-outs stand apart in the source and are kept apart here.

What was measured:
[1] = Route of elimination, radiolabeled drug in urine, monkeys; assay type: in vivo; details: within 24 hours
Method: (§1) Mass balance/route of elimination studies have not been conducted in humans. Animal studies indicate that the principal route of elimination is via renal excretion, with 80% and 62% of radiolabeled drug appearing in the urine of monkeys and rats, respectively, within 24 hours.

[2] = Phase 1 study of CI-994 in relapsed acute leukemia or other hematologic malignancy; assay type: in vivo
Method: An additional Phase 1 study was conducted in patients with relapsed acute leukemia or other hematologic malignancy using a once daily high-dose 5-day dosing schedule. The MTD was 135 mg/m^2/day. […] Other adverse events included nausea, vomiting, hypotension resulting from dehydration, hypocalcemia, headache, and in one patient each, acute pancreatitis, a pyramidal syndrome characterized by hyperreflexia and bilateral Babinski reflexes, and sepsis. Hematologic toxicities cannot be assessed in this patient population. Two patients with AML developed tumor lysis syndrome, resulting in one death. Transient decreases in peripheral white blood cell counts were noted.

[3] = Phase 1 dose-escalation study of CI-994 in solid tumor patients (MTD, pharmacokinetics, food effect)
clinical = details: human, in vivo, po
[4] = human, in vivo
[5] = Route of elimination, radiolabeled drug in urine, rats; assay type: in vivo; details: within 24 hours
Method: as §1

[6] = test system: LC-12 squamous cell lung carcinoma tumor; details: for day on which significant tumor growth commenced (FIG. 1) / tumor growth substantially inhibited for (FIG. 2): controls Day 10
[7] = CI-994 7.5 mg/kg/day alone, days 3-7, 10-14, 17-21
[8] = CI-994 7.5 mg/kg/day alone, days 17-21, 24-28, 31-35
[9] = CI-994 15 mg/kg/day alone, days 3-7, 10-14, 17-21
[10] = CI-994 15 mg/kg/day alone, days 17-21, 24-28, 31-35
[11] = CI-994 30 mg/kg/day alone, days 3-7, 10-14, 17-21
[12] = CI-994 30 mg/kg/day alone, days 17-21, 24-28, 31-35
[13] = CI-994 60 mg/kg/day alone, days 3-7, 10-14, 17-21
[14] = CI-994 60 mg/kg/day alone, days 17-21, 24-28, 31-35
[15] = CI-994 7.5 mg/kg/day alone, days 11-15, 18-22, 25-29
[16] = CI-994 15 mg/kg/day alone, days 11-15, 18-22, 25-29
[17] = CI-994 30 mg/kg/day alone, days 11-15, 18-22, 25-29
[18] = CI-994 60 mg/kg/day alone, days 11-15, 18-22, 25-29
[19] = Table 2 study, CI-994 7.5 mg/kg/day alone, days 11-15, 18-22, 25-29
[20] = Table 2 study, CI-994 15 mg/kg/day alone, days 11-15, 18-22, 25-29
[21] = Table 2 study, CI-994 30 mg/kg/day alone, days 11-15, 18-22, 25-29
[22] = Table 2 study, CI-994 60 mg/kg/day alone, days 11-15, 18-22, 25-29
[23] = Cisplatin 1 mg/kg/day alone, days 11-15 (first line, r11)
[24] = Cisplatin 1 mg/kg/day alone, days 11-15 (second line, r12)
[25] = Gemcitabine 80 mg/kg/day alone, days 11, 14, 17, 20
[26] = Gemcitabine 160 mg/kg/day alone, days 11, 14, 17, 20
[27] = Table 3 study, Xeloda 500 mg/kg/day alone, days 3-7, 10-14
[28] = Table 3 study, Xeloda 750 mg/kg/day alone, days 3-7, 10-14
[29] = Table 4 study, Xeloda 500 mg/kg/day alone, days 3-7, 10-14
[30] = Table 4 study, Xeloda 750 mg/kg/day alone, days 3-7, 10-14

With `CC(=O)Nc1ccc(C(=O)Nc2ccccc2N)cc1` [CI-994, 4-acetylamino-N-(2′-aminophenyl)-benzamide] the “radiolabeled drug appearing in the urine” value [1] was 80%, the dose-limiting toxicity ([2]; in vivo) was “acute CNS toxicity manifested as sedation and somnolence” and the MTD ([2]; patients with relapsed acute leukemia or other hematologic malignancy, once daily high-dose 5-day dosing schedule) was 135 mg/m^2/day. The MTD ([3]; 8 weeks of continuous daily therapy followed by a 2-week drug holiday) was 8 mg/m^2/day, the Responses ([3]; dose-escalation study) was “one partial response in a heavily pretreated patient with NSCLC and a minor response in one patient each with renal cell cancer and NSCLC” and the “maximum tolerated dose (MTD)” value ([3]; duration of treatment 14 consecutive days) was 15 mg/m^2/day. For the same molecule, the “% Tumor free” value (C26 colon tumor; [7]) was 0/10, the “Net Log10 Kill” value (C26 colon tumor; [7]) was −2.2 and the “T − C” value (C26 colon tumor; [7]) was 1.6 days. The “Toxic Deaths” value (C26 colon tumor; [7]) was 0/10, the “% Tumor free” value (C26 colon tumor; [8]) was 0/10 and the “Net Log10 Kill” value (C26 colon tumor; [8]) was −1.3. For the same molecule, the “T − C” value (C26 colon tumor; [8]) was 3.1 days, the “Toxic Deaths” value (C26 colon tumor; [8]) was 0/10 and the “% Tumor free” value (C26 colon tumor; [9]) was 0/9. The “Net Log10 Kill” value (C26 colon tumor; [9]) was −2.3, the “T − C” value (C26 colon tumor; [9]) was 1.0 days and the “Toxic Deaths” value (C26 colon tumor; [9]) was 0/9. The “% Tumor free” value (C26 colon tumor; [10]) was 0/10, the “Net Log10 Kill” value (C26 colon tumor; [10]) was −1.0 and the “T − C” value (C26 colon tumor; [10]) was 6.7 days. The “Toxic Deaths” value (C26 colon tumor; [10]) was 0/10, the “% Tumor free” value (C26 colon tumor; [11]) was 0/9 and the “Net Log10 Kill” value (C26 colon tumor; [11]) was −1.8. For the same molecule, the “T − C” value (C26 colon tumor; [11]) was 4.6 days, the “Toxic Deaths” value (C26 colon tumor; [11]) was 0/9 and the “% Tumor free” value (C26 colon tumor; [12]) was 0/10. For the same molecule, the “Net Log10 Kill” value (C26 colon tumor; [12]) was −0.8, the “T − C” value (C26 colon tumor; [12]) was 8.4 days and the “Toxic Deaths” value (C26 colon tumor; [12]) was 1/10. For the same molecule, the “% Tumor free” value (C26 colon tumor; [13]) was 0/9, the “Net Log10 Kill” value (C26 colon tumor; [13]) was −1.8 and the “T − C” value (C26 colon tumor; [13]) was 4.8 days. The “Toxic Deaths” value (C26 colon tumor; [13]) was 0/9, the “% Tumor free” value (C26 colon tumor; [14]) was 0/10 and the “Net Log10 Kill” value (C26 colon tumor; [14]) was −0.7. The “T − C” value (C26 colon tumor; [14]) was 10.1 days, the “Toxic Deaths” value (C26 colon tumor; [14]) was 0/10 and the half-life (clinical) was ~15 h. For the same molecule, the cumulative toxicity [4] was “no evidence of cumulative toxicity”, the dose-limiting toxicity [4] was “thrombocytopenia or neutropenia” and the “maximum plasma concentrations with increasing dose levels” value ([4]; po) was “less than dose-proportional”. The “terminal elimination half-life and apparent clearance rate vs dose” value ([4]; po) was “independent of the dose administered”, the “time to maximum blood level after ingestion” value ([4]; po) was 1 to 2 h and the Clinical benefit (Phase 2, 8 mg/m^2 orally daily) was “Clinical benefit has been reported in patients with renal cell cancer”. The Objective responses (Phase 2, 8 mg/m^2 orally daily) was “Objective responses have been seen in patients with nonsmall cell lung cancer”, the dose-limiting toxicity (in vivo, po) was “Thrombocytopenia” and the “radiolabeled drug appearing in the urine” value [5] was 62%. The “% Weight Change” value [6, 15] was “+4%”, the CR [6, 15] was 1/6 and the “Net Log10 Kill” value [6, 15] was −1.2. The PR [6, 15] was 0/6, the “T − C” value [6, 15] was 2.4 days and the “Toxic Deaths” value [6, 15] was 0/6. For the same molecule, the “% Weight Change” value [6, 16] was “+10%”, the CR [6, 16] was 0/6 and the “Net Log10 Kill” value [6, 16] was −1.4. For the same molecule, the PR [6, 16] was 0/6, the “T − C” value [6, 16] was 0.4 days and the “Toxic Deaths” value [6, 16] was 0/6. For the same molecule, the “% Weight Change” value [6, 17] was “+1%”, the CR [6, 17] was 0/6 and the “Net Log10 Kill” value [6, 17] was −1.3. The PR [6, 17] was 0/6, the “T − C” value [6, 17] was 1.6 days and the “Toxic Deaths” value [6, 17] was 0/6. For the same molecule, the “% Weight Change” value [6, 18] was −9%, the CR [6, 18] was 3/6 and the “Net Log10 Kill” value [6, 18] was −0.8. For the same molecule, the PR [6, 18] was 0/6, the “T − C” value [6, 18] was 7.8 days and the “Toxic Deaths” value [6, 18] was 0/6. For the same molecule, the “% Weight Change” value [6, 19] was “+9%”, the CR [6, 19] was 0/10 and the “Net Log10 Kill” value [6, 19] was 0. For the same molecule, the PR [6, 19] was 0/10, the “T − C” value [6, 19] was -1.4 days and the “Toxic Deaths” value [6, 19] was 0/10. For the same molecule, the “% Weight Change” value [6, 20] was “+11%”, the CR [6, 20] was 0/10 and the “Net Log10 Kill” value [6, 20] was 0. The PR [6, 20] was 0/10, the “T − C” value [6, 20] was -1.9 days and the “Toxic Deaths” value [6, 20] was 0/10. For the same molecule, the “% Weight Change” value [6, 21] was “+11%”, the CR [6, 21] was 0/10 and the “Net Log10 Kill” value [6, 21] was −0.8. The PR [6, 21] was 0/10, the “T − C” value [6, 21] was 4.3 days and the “Toxic Deaths” value [6, 21] was 0/10. The “% Weight Change” value [6, 22] was “+11%”, the “Net Log10 Kill” value [6, 22] was −0.5 and the PR [6, 22] was 0/10. For the same molecule, the “T − C” value [6, 22] was 8.7 days, the “Toxic Deaths” value [6, 22] was 0/10 and the CR ([6]; Table 2 study, CI-994 60 mg/kg/day alone, days 11-15, 18-22, 25-29, 60 mg/kg/day) was “two complete responses out of 10 and 2/10”. The “day on which significant tumor growth commenced (FIG. 1)” value ([6]; oral 30 mg/kg, Days 10-14, 17-21, 24-28) was ~24 days, the “day on which significant tumor growth commenced (FIG. 1)” value ([6]; oral 45 mg/kg, Days 10-14, 17-21, 24-28) was ~24 days and the “tumor growth delayed for (FIG. 1)” value ([6]; oral 60 mg/kg, Days 10-14, 17-21, 24-28) was 33 days.
With `N.N.[Cl][Pt][Cl]` [Cisplatin, cis-diaminodichloroplatinum, reference compound] the “% Weight Change” value [6, 23] was “+13%”, the CR [6, 23] was 0/10 and the “Net Log10 Kill” value [6, 23] was −0.1. For the same molecule, the PR [6, 23] was 0/10, the “T − C” value [6, 23] was 2.6 days and the “% Weight Change” value [6, 24] was “+12%”. The CR [6, 24] was 0/10, the “Net Log10 Kill” value [6, 24] was −0.1 and the PR [6, 24] was 0/10. For the same molecule, the “T − C” value [6, 24] was 2.4 days, the T-C ([6]; cisplatin alone at 2 mg/kg/day) was 2.4 and the complete responses ([6]; cisplatin alone at 2 mg/kg/day) was “failed to cause any complete responses”.
In the case of `Nc1ccn([C@@H]2O[C@H](CO)[C@@H](O)C2(F)F)c(=O)n1` [Gemcitabine, 2′-deoxy-2′,2′-difluoro-cytidine, reference compound], the “tumor growth substantially inhibited for (FIG. 2)” value ([6]; 40 mg/kg IP on Days 10, 13, 16, 19) is reported as 25 days, the “tumor growth substantially inhibited for (FIG. 2)” value ([6]; 80 mg/kg IP on Days 10, 13, 16, 19) is reported as “about 32 days” and the “% Weight Change” value [6, 25] is reported as “+1%”. For the same molecule, the CR [6, 25] was 1/6, the “Net Log10 Kill” value [6, 25] was 0.5 and the PR [6, 25] was 0/6. The “T − C” value [6, 25] was 15.4 days, the “Toxic Deaths” value [6, 25] was 0/6 and the “% Weight Change” value [6, 26] was −3%. The CR [6, 26] was 0/6, the “Net Log10 Kill” value [6, 26] was 1.2 and the PR [6, 26] was 1/6. The “T − C” value [6, 26] was 24.0 days and the “Toxic Deaths” value [6, 26] was 0/6.
With `CCCCCOC(=O)Nc1nc(=O)n([C@@H]2O[C@H](C)[C@@H](O)[C@H]2O)cc1F` [Xeloda, 5′-deoxy-5-fluoro-N-[(pentyloxy)carbonyl]-cytidine, reference compound] the “% Tumor free” value (C26 colon tumor; [27]) was 2/10, the “Net Log10 Kill” value (C26 colon tumor; [27]) was 0.2 and the “T − C” value (C26 colon tumor; [27]) was 13.8 days. For the same molecule, the “Toxic Deaths” value (C26 colon tumor; [27]) was 0/10, the “% Tumor free” value (C26 colon tumor; [28]) was 3/10 and the “Net Log10 Kill” value (C26 colon tumor; [28]) was 0.8. The “T − C” value (C26 colon tumor; [28]) was 20.7 days, the “Toxic Deaths” value (C26 colon tumor; [28]) was 1/10 and the “% Tumor free” value (C26 colon tumor; Table 3 study, Xeloda 750 mg/kg/day alone, days 3-7, 10-14, listed as capecitabine) was 3 out of 10. For the same molecule, the “% Tumor free” value (C26 colon tumor; [29]) was 0/10, the “Net Log10 Kill” value (C26 colon tumor; [29]) was 0.6 and the “T − C” value (C26 colon tumor; [29]) was 15.2 days. The “Toxic Deaths” value (C26 colon tumor; [29]) was 0/10, the “% Tumor free” value (C26 colon tumor; [30]) was 1/10 and the “Net Log10 Kill” value (C26 colon tumor; [30]) was 1.3. For the same molecule, the “T − C” value (C26 colon tumor; [30]) was 20.4 days and the “Toxic Deaths” value (C26 colon tumor; [30]) was 0/10.
